Results from ChEMBL document CHEMBL1124940, “N-[(arylmethoxy)phenyl] carboxylic acids, hydroxamic acids, tetrazoles, and sulfonyl carboxamides. Potent orally active leukotriene D4 antagonists of novel structure” (J Med Chem, 1990).

Legend:
Cavia porcellus [1] = test: Inhibition of LTD4-induced broncho constriction in Guinea pig after intragastrical administration of a dose of 25 mg/kg; format: functional; conditions: po, route intragastric
Cavia porcellus [2] = test: Tested for the inhibition of LTD4-induced broncho constriction in Guinea pig, injected intraduodenally at a dose of 25 mg/kg; format: functional; conditions: route intraduodenal
Cavia porcellus [3] = test: Inhibition of LTD4-induced broncho constriction in Guinea pig after intragastrical administration of a dose of 3 mg/kg; format: functional; conditions: po, route intragastric
Cavia porcellus [4] = test: Tested for the inhibition of LTD4-induced bronchoconstriction in Guinea pig, injected intraduodenally, dose of 3 mg/kg; format: functional; conditions: route intraduodenal
Cavia porcellus [5] = test: Tested for the inhibition of ovalbumin- induced bronchoconstriction in Guinea pig, injected intragastrically. Compound dose is 10 mg/kg; format: functional; conditions: po, route intragastric
Cavia porcellus [6] = test: Tested for the inhibition of ovalbumin- induced bronchoconstriction in Guinea pig, injected intragastrically. Compound dose is 25 mg/kg; format: functional; conditions: po, route intragastric
Cavia porcellus [7] = test: -log dissociation constant was determined In vitro in isolated guinea pig trachea after intraduodenal administration (before 10 min); format: ADME, organism-based; conditions: in vivo, other
Cavia porcellus [8] = test: In vitro LTD4-induced bronchoconstriction. i n isolated guinea pig trachea by injecting intraduodenally.; format: functional; conditions: intraduodenal
Cavia porcellus [9] = test: In vitro inhibition of ovalbumin-induced bronchoconstriction in isolated guinea pig trachea was determined after intraduodenal aministration; format: functional
Cavia porcellus [10] = test: Tested for the inhibition of ovalbumin- induced bronchoconstriction in Guinea pig, injected intraduodenally, dose of 25 mg/kg; format: functional; conditions: route intraduodenal
Cavia porcellus [11] = test: Tested for the inhibition of LTD4-induced bronchoconstriction in Guinea pig, injected intragastrically, dose of 25 mg/kg; format: functional; conditions: po, route intragastric
Cavia porcellus [12] = test: Inhibition of ovalbumin-induced broncho constriction in Guinea pig after intragastrical administration of a dose of 25 mg/kg; format: functional; conditions: po, route intragastric
Cavia porcellus [13] = test: Tested for the inhibition of LTD4-induced broncho constriction in Guinea pig, compound injected intragastrically at a dose of 25 mg/kg; format: functional; conditions: po, route intragastric
Cavia porcellus [14] = test: Inhibition of LTD4-induced broncho constriction in Guinea pig, compound injected intraduodenally at a dose of 25 mg/kg; format: functional; conditions: route intraduodenal
Cavia porcellus [15] = test: Tested for the inhibition of LTD4-induced bronchoconstriction in Guinea pig, injected intragastrically, dose of 10 mg/kg; format: functional; conditions: po, route intragastric
Cavia porcellus [16] = test: Tested for the inhibition of LTD4-induced bronchoconstriction in Guinea pig, injected intraduodenally, dose is 3 mg/kg; format: functional; conditions: route intraduodenal
Cavia porcellus [17] = test: Tested for the inhibition of ovalbumin- induced bronchoconstriction in Guinea pig, injected intraduodenally, dose of 3 mg/kg.; format: functional; conditions: route intraduodenal
Cavia porcellus [18] = test: Tested for the inhibition of ovalbumin- induced bronchoconstriction in Guinea pig, injected intraduodenally, dose is 25 mg/kg.; format: functional; conditions: route intraduodenal
Cavia porcellus [19] = test: Tested for the inhibition of ovalbumin- induced bronchoconstriction in Guinea pig, injected intragastrically, dose of 25 mg/kg; format: functional; conditions: po, route intragastric
Cavia porcellus [20] = test: Tested for the inhibition of ovalbumin- induced bronchoconstriction in Guinea pig, injected intragastrically, dose of 10 mg/kg.; format: functional; conditions: po, route intragastric
Cavia porcellus [21] = test: Tested for the inhibition of LTD4-induced bronchoconstriction in Guinea pig, injected intragastrically, dose of 3 mg/kg.; format: functional; conditions: po, route intragastric
Cavia porcellus [22] = test: In vitro Inhibition of ovalbumin-induced bronchoconstriction in isolated guinea pig trachea by injecting intraduodenally; format: functional; conditions: intraduodenal
Cavia porcellus [23] = test: Dissociation constant was determined in vitro after intraduodenal administration in isolated guinea pig trachea; format: ADME, organism-based; conditions: in vivo, other
Cavia porcellus [24] = test: Tested for the inhibition of LTD4-induced bronchoconstriction in Guinea pig, compound injected intragastrically, dose of 25 mg/kg; format: functional; conditions: po, route intragastric
Cavia porcellus [25] = test: Tested for the inhibition of ovalbumin- induced bronchoconstriction in Guinea pig, compound injected intragastrically, dose of 25 mg/kg; format: functional; conditions: po, route intragastric
Cavia porcellus [26] = species on record: Cavia porcellus; test: Dose of antagonist that produces 50% inhibition of ovalbumin-induced bronchoconstriction; format: functional
Cavia porcellus [27] = test: Tested for the inhibition of ovalbumin- induced bronchoconstriction in Guinea pig, compound injected intragastrically, dose of 3 mg/kg; format: functional; conditions: po, route intragastric
Cavia porcellus [28] = test: Inhibition of LTD4-induced broncho constriction in Guinea pig after intraduodenal administration of a dose of 3 mg/kg; format: functional
Rattus norvegicus = test: Antiinflammatory effect was studied in a rat carrageenan paw edema (CE) assay at 50 mg/kg; format: functional
Cavia porcellus [29] = test: In vitro inhibition of LTD4-induced bronchoconstriction into isolated guinea pig trachea by injecting intragastrically; format: functional; conditions: po
Cavia porcellus [30] = test: Tested for the inhibition of ovalbumin induced bronchoconstriction in Guinea pig, compound injected intraduodenally, dose is 25 mg/kg; format: functional; conditions: route intraduodenal
Cavia porcellus [31] = test: Tested for the inhibition of ovalbumin induced bronchoconstriction in Guinea pig, compound injected intraduodenally, dose is 10 mg/kg; format: functional; conditions: route intraduodenal
Cavia porcellus [32] = test: In vitro inhibition of LTD4-induced bronchoconstriction in isolated guinea pig trachea by injecting intraduodenally; format: functional; conditions: intraduodenal
[33] = target: T1, Polyunsaturated fatty acid 5-lipoxygenase (Rattus norvegicus, UniProt P12527); test: Concentration for 50% inhibition of A-23187-stimulated radiolabeled 5-HETE and TXB2 synthesis by PMN 5-lipoxygenase; format: functional
T1 sequence (P12527 whole entry): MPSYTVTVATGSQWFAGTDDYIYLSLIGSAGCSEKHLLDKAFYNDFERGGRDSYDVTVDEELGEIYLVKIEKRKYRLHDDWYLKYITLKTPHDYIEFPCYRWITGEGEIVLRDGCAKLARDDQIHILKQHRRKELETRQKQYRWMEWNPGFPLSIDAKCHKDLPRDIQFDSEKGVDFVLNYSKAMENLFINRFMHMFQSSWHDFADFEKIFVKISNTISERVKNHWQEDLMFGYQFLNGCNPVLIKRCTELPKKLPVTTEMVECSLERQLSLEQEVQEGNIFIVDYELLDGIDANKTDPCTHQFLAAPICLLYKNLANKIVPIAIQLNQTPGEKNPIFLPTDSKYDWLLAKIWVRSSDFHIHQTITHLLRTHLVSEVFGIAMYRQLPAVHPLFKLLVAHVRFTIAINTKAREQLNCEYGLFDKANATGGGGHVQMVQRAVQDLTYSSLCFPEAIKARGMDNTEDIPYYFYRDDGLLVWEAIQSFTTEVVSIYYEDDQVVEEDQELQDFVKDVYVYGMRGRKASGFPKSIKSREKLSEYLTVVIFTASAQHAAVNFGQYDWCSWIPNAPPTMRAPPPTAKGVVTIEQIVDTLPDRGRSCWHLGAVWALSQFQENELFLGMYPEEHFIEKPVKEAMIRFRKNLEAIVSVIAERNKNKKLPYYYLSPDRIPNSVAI

Cavia porcellus [34] = test: Tested for the inhibition of LTD4-induced bronchoconstriction in Guinea pig, compound injected intragastrically, dose of 3 mg/kg; format: functional; conditions: po, route intragastric

Compound: c1cc(OCc2ccc3ccccc3n2)cc(-c2nn[nH]n2)c1
- inhibition in vivo at 25 mg/kg (Cavia porcellus [1]): < 89%
- inhibition in vivo at 25 mg/kg (Cavia porcellus [2]): 90%
- inhibition in vivo at 3 mg/kg (Cavia porcellus [3]): 13%

Compound: c1ccc2nc(COc3ccc(Cc4nnn[nH]4)cc3)ccc2c1
- inhibition in vivo at 3 mg/kg (Cavia porcellus [4]): -15%
- inhibition in vivo at 10 mg/kg (Cavia porcellus [5]): 6%
- inhibition in vivo at 25 mg/kg (Cavia porcellus [1]): 90%
- inhibition in vivo at 25 mg/kg (Cavia porcellus [2]): 88%
- inhibition in vivo at 3 mg/kg (Cavia porcellus [3]): 4%
- inhibition in vivo at 25 mg/kg (Cavia porcellus [6]): 76%

Compound: COC(=O)CCC(=O)N(O)c1cccc(OCc2ccc3ccccc3n2)c1
- pKb (Cavia porcellus [7]): 6.5
- ED50 (Cavia porcellus [8]): 3.3 mg/kg
- ED50 (Cavia porcellus [9]): 27.4 mg/kg

Compound: CS(=O)(=O)NC(=O)c1cccc(OCc2ccc3ccccc3n2)c1
- inhibition in vivo at 25 mg/kg (Cavia porcellus [1]): < 66%
- inhibition in vivo at 25 mg/kg (Cavia porcellus [2]): 90%
- inhibition in vivo at 25 mg/kg (Cavia porcellus [10]): < 13%
- inhibition in vivo at 3 mg/kg (Cavia porcellus [3]): 20%

Compound: Cc1ccc(S(=O)(=O)NC(=O)CCc2cccc(OCc3ccc4ccccc4n3)c2)cc1
- inhibition in vivo at 25 mg/kg (Cavia porcellus [11]): < 66%
- inhibition in vivo at 25 mg/kg (Cavia porcellus [12]): < 26%
- inhibition in vivo at 25 mg/kg (Cavia porcellus [2]): 97%

Compound: O=C(O)Cc1cccc(OCc2ccc3ccccc3n2)c1
- inhibition in vivo at 25 mg/kg (Cavia porcellus [13]): < 99%

Compound: c1cc(Cc2nnn[nH]2)cc(OCc2nc3ccccc3s2)c1
- inhibition in vivo at 25 mg/kg (Cavia porcellus [2]): < 95%

Compound: O=C(O)Cc1ccc(OCc2ccc3ccccc3n2)cc1
- inhibition in vivo at 25 mg/kg (Cavia porcellus [1]): < -4%

Compound: COC(=O)Cc1cccc(OCc2nc3ccccc3s2)c1
- inhibition in vivo at 25 mg/kg (Cavia porcellus [1]): < 33%
- inhibition in vivo at 25 mg/kg (Cavia porcellus [14]): < 65%

Compound: Cc1ccc(S(=O)(=O)NC(=O)Cc2cccc(OCc3nc4ccccc4s3)c2)cc1
- inhibition in vivo at 10 mg/kg (Cavia porcellus [15]): < 55%
- inhibition in vivo at 3 mg/kg (Cavia porcellus [16]): 83%
- inhibition in vivo at 3 mg/kg (Cavia porcellus [17]): 44%
- inhibition in vivo at 25 mg/kg (Cavia porcellus [18]): 78%
- inhibition in vivo at 25 mg/kg (Cavia porcellus [19]): < 70%
- inhibition in vivo at 25 mg/kg (Cavia porcellus [2]): < 97%
- inhibition in vivo at 10 mg/kg (Cavia porcellus [20]): 42%
- inhibition in vivo at 3 mg/kg (Cavia porcellus [21]): 80%

Compound: CONC(=O)Cc1cccc(OCc2nc3ccccc3s2)c1
- inhibition in vivo at 25 mg/kg (Cavia porcellus [1]): < -4%

Compound: CONC(=O)Cc1cccc(OCc2ccc3ccccc3n2)c1
- ED50 (Cavia porcellus [22]): 7.3 mg/kg
- pKb (Cavia porcellus [23]): 6.08
- inhibition in vivo at 25 mg/kg (Cavia porcellus [24]): 86%
- inhibition in vivo at 25 mg/kg (Cavia porcellus [25]): 83%
- ED50 (Cavia porcellus [26]): 3.6 mg/kg
- inhibition in vivo at 3 mg/kg (Cavia porcellus [27]): 38%
- inhibition in vivo at 3 mg/kg (Cavia porcellus [28]): 44%
- inhibition in vivo at 50 mg/kg (Rattus norvegicus): < 41%
- ED50 (Cavia porcellus [29]): 7.9 mg/kg
- inhibition in vivo at 25 mg/kg (Cavia porcellus [30]): 56%
- inhibition in vivo at 10 mg/kg (Cavia porcellus [31]): 25%
- ED50 (Cavia porcellus [32]): 1.8 mg/kg
- IC50 [33]: 14.2 µM
- inhibition in vivo at 3 mg/kg (Cavia porcellus [34]): 2%

Compound: O=C(Cc1cccc(OCc2ccc3ccccc3n2)c1)NO
- inhibition in vivo at 25 mg/kg (Cavia porcellus [2]): < 14%
